Like-named read-outs stand apart in the source and are kept apart here.
Assays:
full length USP7 = full length USP7 (Homo sapiens (Human), UniProt Q93009); assay: Ub-AMC enzymatic assay with full-length USP7; assay type: biochemical; settings: for IC50: 6 hours pre-incubation, Ub-AMC
Method: Both constructs were overexpressed in E. coli BL21 (DE3). Cells were grown at 37° C. to an OD of 0.9, cooled to 16° C., induced with 500 μM isopropyl-1-thio-D-galactopyranoside (IPTG), incubated overnight at 16° C., collected by centrifugation, and stored at −80° C. Cell pellets were sonicated in lysis buffer (25 mM Tris pH 8, 1 M NaCl, and 10 mM BME) supplemented with 10 μg/ml phenylmethanesulfonylfluoride (PMSF) and the resulting lysate was centrifuged at 30,000×g for 40 min. Ni-NTA beads (Qiagen) were mixed with lysate supernatant for 2 hours, and washed with lysis buffer supplemented with 25 mM imidazole. The bound protein was eluted with lysis buffer supplemented with 300 mM imidazole. The sample was then concentrated to 1 ml (30 kDa concentrator; Amicon Ultra, Millipore), and run on a Superdex 200 (GE healthcare) in buffer containing 25 mM HEPES pH 7.5, 200 mM NaCl, and 1 mM DTT. Fractions were pooled, concentrated and frozen at −80° C.
Full length USP7 was tested for its activity in Ubiquitin-AMC assay in presence or absence of inhibitors. USP7 (5 nM) was pre-incubated for 6 hours at room temperature with different concentrations of inhibitors or DMSO as a control in 50 mM HEPES pH 7.5, 0.5 mM EDTA, 11 μM ovalbumin, and 5 mM DTT. Ubiquitin-AMC (Boston Biochem) was then added to a final concentration of 500 nM. The initial rate of the reaction was measured by collecting fluorescence data at one minute intervals over 30-minute period using a Clariostar fluorescence plate reader at excitation and emission wavelength of 345 and 445 nm respectively. The calculated initial rate values were plotted against inhibitor concentrations to determine IC50s. All the experimental data were plotted using Prism GraphPad. All assays for each compound were performed at least twice for each compound.

[1] = tested on: Ewing sarcoma cell lines, TP53 WT and mutant; assay: Cell proliferation (CellTiter-Glo), panel of Ewing sarcoma cell lines; assay type: cell-based; settings: same set of cell lines
Method: Cells were plated in 384-well culture-treated plates and allowed to settle overnight. After drug treatment and appropriate incubation time, cell viability was assessed using the CellTiter-Glo Luminescent Cell Viability Assay (Promega). Luminescence was read on a Fluostar Omega Reader (BMG Labtech).

MCF7 cells [2] = assay: Drug synergy analysis (Chou-Talalay combination index), MCF7; assay type: cell-based
Text: (§1) Loewe Additivity is a dose-effect approach that estimates the effect of combining two drugs based on the concentration of each individual drug that produces the same quantitative effect (Goldoni and Johansson, 2007). […] They introduced the combination index (CI) scores to estimate the interaction between the two drugs. If CI<1, the drugs have a synergistic effect, and if CI>1, the drugs have an antagonistic effect. CI=1 means the drugs have an additive effect.

TC32 cells = assay: Drug synergy analysis (Chou-Talalay combination index), TC32; assay type: cell-based
Text: as §1, with “drugs.” for “drugs. If CI<1, the drugs have a synergistic effect, and if CI>1, the drugs have an antagonistic effect. CI=1 means the drugs have an additive effect.”

[3] = tested on: MDM2-p53 signaling axis in MCF7 cells; assay: Whole cell lysate Western blots of MCF7 cells (MDM2-p53 signaling axis); assay type: cell-based; settings: wild-type TP53
MCF7 cells [4] = assay: Cell cycle analysis by propidium iodide staining; assay type: cell-based; settings: 1 μM, 24 hours
Method: For propidium iodide (PI) staining, treated cells (˜1 million per condition) were washed with cold PBS, then fixed in 80% ethanol overnight at −20° C. After fixing, cells were pelleted, washed with PBS, and reconstituted in 500 μL FxCycle PI/RNAse A staining solution (Thermo Fisher). Cells were stored overnight at 4° C. and analyzed using a BD Fortessa flow cytometer.

MCF7 cells [5] = assay: Transcriptome profiling, 3' Digital Gene Expression RNA-seq; assay type: cell-based; settings: 24 hours, low or high doses
Text: Overall, transcripts were detected for 7000-10,000 genes (7276 genes detected across all conditions).
The same report had also identified a set of dimerization partner, Retinoblastoma-like, E2F and multi-vulval class B (DREAM) complex target genes by combining p53 repression data (generated in part with Nutlin-3A-treated MCF7 cells) with cell cycle expression and DREAM component binding.

USP7 catalytic domain = USP7 catalytic domain (Homo sapiens (Human), UniProt Q93009); assay: MS labeling of purified USP7 catalytic domain (intact MS, CE-MS); assay type: binding; settings: 15 minutes incubation
Chain of USP7 catalytic domain (Q93009 208-560): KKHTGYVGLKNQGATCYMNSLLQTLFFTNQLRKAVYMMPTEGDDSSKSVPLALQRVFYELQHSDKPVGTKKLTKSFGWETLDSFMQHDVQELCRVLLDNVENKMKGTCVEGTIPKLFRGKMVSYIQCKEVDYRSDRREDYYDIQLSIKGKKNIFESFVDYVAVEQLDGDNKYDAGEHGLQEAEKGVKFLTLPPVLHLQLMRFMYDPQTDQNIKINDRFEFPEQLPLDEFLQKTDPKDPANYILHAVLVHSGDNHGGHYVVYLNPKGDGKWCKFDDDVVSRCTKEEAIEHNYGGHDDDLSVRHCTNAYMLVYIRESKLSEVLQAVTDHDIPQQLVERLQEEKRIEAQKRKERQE
Method: Purified USP7 catalytic domain was diluted to 20 μM in 10 μL labeling buffer (20 mM HEPES pH 7.5, 150 mM NaCl, 1 mM TCEP) and incubated for the indicated times with 50 μM (2.5×) compound. After incubation, samples were flash frozen in liquid nitrogen and stored at −80° C. until analysis.
Intact mass analysis was performed by injecting 5 μg USP7 catalytic domain onto a self-packed reversed phase column ( 1/32″ O.D.×500 um I.D., 5 cm of POROS 10R2 resin). After desalting, protein was eluted with an HPLC gradient (0-100% B in 4 minutes, A=0.2M acetic acid in water, B=0.2 M acetic acid in acetonitrile, flow rate ˜30 μL/min) into an LTQ ion trap mass spectrometer (ThermoFisher Scientific, San Jose, CA). Mass spectra were deconvoluted using MagTran1.03b2 software. Zhang, Z. & Marshall, A. G. A universal algorithm for fast and automated charge state deconvolution of electrospray mass-to-charge ratio spectra. J. Am. Soc. Mass Spectrom. 9, 225-233 (1998).
To identify sites of covalent modification, treated protein was reduced (10 mM dithiothreitol), alkylated (22.5 mM iodoacetamide), and digested with trypsin overnight at 37° C. Peptides were desalted using SP3 (Hughes, C. S. et al. Ultrasensitive proteome analysis using paramagnetic bead technology. Mol. Syst. Biol. 10, 757-757 (2014)), dried by vacuum centrifugation, and reconstituted in 1% formic acid/50% acetonitrile with 100 mM ammonium acetate. Peptides were then analyzed by CE-MS using a ZipChip CE system and autosampler (908 Devices, Boston, MA) interfaced to a QExactive HF mass spectrometer (ThermoFisher Scientific, San Jose, CA). Peptide solution was loaded for 30 seconds, and the mass spectrometer was operated in data dependent mode and subjected the 5 most abundant ions in each MS scan (60 k resolution, 3E6 target, lock mass enabled) to MS/MS (15 k resolution, 1E5 target, 100 ms max inject time). Dynamic exclusion was enabled with a repeat count of 1 and an exclusion time of 6 seconds. […]

[6] = Table 3, read-out: IC50 (μM), USP7 activity in USP7 assay
[7] = Table 1, read-out: IC50 (nM), USP7 activity in USP7 assay

Chain of full length USP7 (Q93009 whole entry): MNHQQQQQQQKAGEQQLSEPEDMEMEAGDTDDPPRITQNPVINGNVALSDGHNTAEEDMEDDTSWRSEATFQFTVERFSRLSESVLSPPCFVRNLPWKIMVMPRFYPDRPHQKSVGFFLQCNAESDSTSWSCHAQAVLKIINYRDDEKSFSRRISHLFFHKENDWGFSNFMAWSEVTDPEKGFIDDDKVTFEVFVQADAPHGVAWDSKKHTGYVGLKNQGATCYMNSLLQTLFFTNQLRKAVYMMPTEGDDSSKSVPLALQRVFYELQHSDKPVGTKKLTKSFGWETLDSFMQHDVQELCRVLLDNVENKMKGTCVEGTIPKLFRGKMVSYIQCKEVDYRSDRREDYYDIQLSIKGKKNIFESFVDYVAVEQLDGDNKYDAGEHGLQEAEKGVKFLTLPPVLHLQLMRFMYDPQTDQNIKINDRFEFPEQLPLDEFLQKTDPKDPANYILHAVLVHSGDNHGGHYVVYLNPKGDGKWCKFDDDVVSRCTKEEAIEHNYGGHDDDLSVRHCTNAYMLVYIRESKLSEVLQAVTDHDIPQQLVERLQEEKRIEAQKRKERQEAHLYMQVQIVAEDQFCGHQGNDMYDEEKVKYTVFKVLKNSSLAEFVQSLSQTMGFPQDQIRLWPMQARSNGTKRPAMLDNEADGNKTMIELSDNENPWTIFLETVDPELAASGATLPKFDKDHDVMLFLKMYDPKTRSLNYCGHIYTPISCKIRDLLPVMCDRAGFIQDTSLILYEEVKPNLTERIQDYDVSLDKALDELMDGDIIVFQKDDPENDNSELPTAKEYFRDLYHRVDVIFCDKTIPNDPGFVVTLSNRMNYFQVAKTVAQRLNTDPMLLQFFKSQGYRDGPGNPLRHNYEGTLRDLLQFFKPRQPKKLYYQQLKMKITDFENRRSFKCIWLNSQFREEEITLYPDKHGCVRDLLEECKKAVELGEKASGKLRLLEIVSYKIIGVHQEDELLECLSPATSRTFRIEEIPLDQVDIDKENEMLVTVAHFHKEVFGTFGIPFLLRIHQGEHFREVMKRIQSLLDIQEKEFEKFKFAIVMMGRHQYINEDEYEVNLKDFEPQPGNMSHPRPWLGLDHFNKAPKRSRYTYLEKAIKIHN

SMILES: O=C(CCN1CCOCC1)Nc1ccc2c(=O)n(CC3(O)CCN(C(=O)[C@H](Cc4ccccc4)NC(=O)COc4ccc5c(Cl)c6c(nc5c4)CCCC6)CC3)cnc2c1
- IC50 (full length USP7; [6]): 0.1 to 1 µM

SMILES: O=C(CCN1CCOCC1)Nc1ccc2c(=O)n(CC3(O)CCN(C(=O)C(CCCNC(=O)c4ccc5c(Cl)c6c(nc5c4)CCCC6)Cc4ccc(F)c(C(F)(F)F)c4)CC3)cnc2c1 (stereo not shown)
- IC50 (full length USP7; [6]): 0.02 to 0.1 µM

SMILES: O=C(CCN1CCOCC1)Nc1ccc2c(=O)n(CC3(O)CCN(C(=O)C(CCCNC(=O)c4ccc5c(Cl)c6c(nc5c4)CCCC6)Cc4ccc(F)cc4F)CC3)cnc2c1 (stereo not shown)
- IC50 (full length USP7; [6]): 0.02 to 0.1 µM

SMILES: CN1CCN(c2cccc3c(=O)n(CC4(O)CCN(C(=O)[C@@H](CCCNC(=O)c5ccc6c(Cl)c7c(nc6c5)CCCC7)Cc5ccccc5)CC4)cnc23)CC1
- IC50 (full length USP7; [6]): 0.02 to 0.1 µM

SMILES: O=C(NCCC[C@@H](Cc1ccccc1)C(=O)N1CCC(O)(Cn2cnc3c(N4CCOCC4)cccc3c2=O)CC1)c1ccc2c(Cl)c3c(nc2c1)CCCC3
- IC50 (full length USP7; [6]): 0.02 to 0.1 µM

SMILES: CCc1c(-c2ccc3[nH]ncc3c2)cnc(N)c1-c1ccc(O)cc1 [GNE6640]
- specificity for TP53-WT expressing cells [1]: little to no specificity for TP53-WT expressing cells

SMILES: Cc1ncc(Cl)cc1NCc1ccc(C(=O)N[C@@H](CC2CCCC2)C(=O)NC2CC2)s1 [GSK2830371]
- interaction in combination with compound 6 (MCF7 cells [2]): mixed synergy and antagonism
- combination index with compound 6 (TC32 cells): < 0.6

SMILES: COc1cc(C(=O)O)ccc1NC(=O)[C@@H]1N[C@@H](CC(C)(C)C)[C@](C#N)(c2ccc(Cl)cc2F)[C@H]1c1cccc(Cl)c1F [RG7388]
- combination index with compound 6 (TC32 cells): < 0.6

SMILES: C[C@@H]1NC(=O)N[C@@H]1CCCCCC(=O)NCCOCCOCCOCCC(=O)N1CCN(CC(=O)Nc2ccc3c(=O)n(CC4(O)CCN(C(=O)CCCCNC(=O)c5ccc6c(Cl)c7c(nc6c5)CCCC7)CC4)cnc3c2)CC1 [compound 6-DTB, 9-chloro-N-(5-(4-hydroxy-4-((7-(2-(4-(19-((4R,5S)-5-methyl-2-oxoimidazolidin-4-yl)-14-oxo-4,7,10-trioxa-13-azanonadecanoyl)piperazin-1-yl)acetamido)-4-oxoquinazolin-3(4H)-yl)methyl)piperidin-1-yl)-5-oxopentyl)-5,6,7,8-tetrahydroacridine-3-carboxamide]
- USP7 inhibitory activity (full length USP7; purified enzyme and native USP7): retained USP7 inhibitory activity

SMILES: CN1CCN(CCC(=O)Nc2ccc3c(=O)n(CC4(O)CCN(C(=O)[C@H](CCCNC(=O)c5ccc6c(Cl)c7c(nc6c5)CCCC7)Cc5ccccc5)CC4)cnc3c2)CC1 [compound 7, (R)-N-(4-benzyl-5-(4-hydroxy-4-((7-(3-(4-methylpiperazin-1-yl)propanamido)-4-oxoquinazolin-3(4H)-yl)methyl)piperidin-1-yl)-5-oxopentyl)-9-chloro-5,6,7,8-tetrahydroacridine-3-carboxamide]
- MDM2 protein level [3]: did not exert any of the same effects
- cell cycle effect (MCF7 cells [4]): did not exert any of the same effects
- transcriptional profile (MCF7 cells [5]): highly correlated with the vehicle (DMSO)-treated control cells

SMILES: CN1CCN(CCC(=O)Nc2ccc3c(=O)n(CC4(O)CCN(C(=O)C(CCCNC(=O)c5ccc6cc7c(nc6c5)CCCC7)Cc5ccccc5)CC4)cnc3c2)CC1 (stereo not shown) [compound 40, N-(4-benzyl-5-(4-hydroxy-4-((7-(3-(4-methylpiperazin-1-yl)propanamido)-4-oxoquinazolin-3(4H)-yl)methyl)piperidin-1-yl)-5-oxopentyl)-5,6,7,8-tetrahydroacridine-3-carboxamide]
- labeling of USP7 catalytic domain by MS (USP7 catalytic domain): unable to label the USP7 catalytic domain
- IC50 against USP7 (range in words) (full length USP7; full-length USP7, Ub-AMC): nanomolar range

SMILES: COc1cccc2c1C(=O)c1c(O)c3c(c(O)c1C2=O)C[C@@](O)(C(=O)CO)C[C@@H]3O[C@H]1C[C@H](N)[C@H](O)[C@H](C)O1 [doxorubicin]
- interaction in combination with compound 6 (MCF7 cells [2]): mixed synergy and antagonism
- combination index with compound 6 (TC32 cells): < 0.6

SMILES: CN1CCN(CCC(=O)Nc2ccc3c(=O)n(CC4(O)CCN(C(=O)CCCCNC(=O)c5ccc6c(Cl)c7c(nc6c5)CCCC7)CC4)cnc3c2)CC1 [drawing 141]
- IC50 (full length USP7; [7]): 0.02 to 0.1 µM

SMILES: CN1CCN(CCC(=O)Nc2ccc3c(=O)n(CC4(O)CCN(C(=O)[C@@H](CCCNC(=O)c5ccc6c(Cl)c7c(nc6c5)CCCC7)Cc5ccccc5)CC4)cnc3c2)CC1 [drawing 146]
- IC50 (full length USP7; [7]): < 0.02 µM

SMILES: CN1CCN(CCC(=O)Nc2ccc3c(=O)n(CC4(O)CCN(C(=O)[C@H](CCCNC(=O)c5ccc6c(Cl)c7c(nc6c5)CCCC7)Cc5ccccc5)CC4)cnc3c2)CC1 [drawing 147]
- IC50 (full length USP7; [7]): 0.1 to 1 µM

SMILES: CN1CCN(CCC(=O)Nc2ccc3c(=O)n(CC4(O)CCN(C(=O)C(CCCNC(=O)c5ccc6cc7c(nc6c5)CCCC7)Cc5ccccc5)CC4)cnc3c2)CC1 (stereo not shown) [drawing 180]
- IC50 (full length USP7; Table 2, read-out: IC50 (μM), USP7 activity in USP7 assay): 0.1 to 1 µM

SMILES: COc1cc([C@@H]2c3cc4c(cc3[C@@H](O[C@@H]3O[C@@H]5CO[C@@H](C)O[C@H]5[C@H](O)[C@H]3O)[C@H]3COC(=O)[C@H]23)OCO4)cc(OC)c1O [etoposide]
- interaction in combination with compound 6 (MCF7 cells [2]): mixed synergy and antagonism
